According to PubChem BioAssay (NCI):
“And” between values parts separate entries of the source, which are not always exact repeats. Identical values can stand only once.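 Exposure lasted 48 hours, with cells grown in 96-well plates and compounds tested at five concentrations. GI50 marks 50% less growth. TGI marks complete inhibition of growth.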

Tested on: MDA-MB-468 breast
Experiment: growth of human tumour cells (NCI), 48 h

`Cc1ccc(Nc2oc(-c3ccccc3)nc2[P+](c2ccccc2)(c2ccccc2)c2ccccc2)cc1` was tested. Which GI50 did it give?
Its GI50 is 0.266 µM.

And the TGI?
Its TGI is 0.895 µM.

Which results are given for `CSc1nc(NC2OC(COC(C)=O)C(OC(C)=O)C(OC(C)=O)C2OC(C)=O)c(N=CC=Nc2c(NC3OC(COC(C)=O)C(OC(C)=O)C(OC(C)=O)C3OC(C)=O)nc(SC)n(C)c2=O)c(=O)n1C` (stereo not drawn)?
GI50: 39.4 µM; TGI: 50 µM

Which results are given for `CN1CC[C@@H](c2c(O)cc(O)c3c(=O)cc(-c4ccc(C(F)(F)F)cc4Cl)oc23)[C@@H]1CO`?
GI50: 12.2 µM; TGI: 29.6 µM

`O=C1c2cc3c(cc2-c2c1c1cc(Cl)c(Cl)cc1c(=O)n2C[C@H](O)CO)OCO3` was tested. Which GI50 did it give?
The GI50 was less than 0.01 µM.

What about the TGI of the same molecule?
The TGI was 0.0305 µM.

With `COc1ccc(-c2nnc(N3CCN(C(=O)CN4CCN(c5ccccc5)CC4)CC3)nc2-c2ccc(OC)cc2)cc1` as the molecule, how does the GI50 read?
Its GI50 is 8.31 µM.

What about the TGI of the same molecule?
The TGI was greater than 100 µM.

For `O=S(=O)(Nc1ccc(Cl)cc1Cl)c1ccc(-c2cnc(C3CC3)o2)cc1`, which GI50 is on record?
The GI50 was 0.339 µM.

And the TGI?
Its TGI is 2.9 µM.

With `Cc1cc(N(CCCNc2ccnc3cc(Cl)ccc23)Cc2ccc3c(c2)OCO3)nc(N2CCOCC2)n1` as the molecule, how does the GI50 read?
Its GI50 is 0.202 µM.

What about the TGI of the same molecule?
The TGI was 0.562 µM.

How did the GI50 turn out when `Clc1nc(Cl)nc(Nc2cccc3ccccc23)n1` was run?
The GI50 was 52.1 µM.

And the TGI?
Its TGI is greater than 100 µM.

For `Cc1nc2cc(Nc3nc(Nc4ccc(F)cc4)nc(-c4cccs4)n3)ccc2n1Cc1ccccc1`, which GI50 is on record?
The GI50 was 3.62 µM.

And the TGI?
Its TGI is 35.4 µM.

With `Nc1c(C(=O)c2ccccc2)cnn1-c1ccc(F)cc1` as the molecule, how does the GI50 read?
The GI50 was greater than 25 µM.

And the TGI?
Its TGI is greater than 25 µM.

Which GI50 does the source give for `COc1cccc2c1C(=O)c1c(O)c3c(c(O)c1C2=O)C[C@@](O)(/C(C)=N/NC(=O)c1ccc(Cl)cc1)C[C@@H]3OC1CC(N)C(O)C(C)O1` (stereo partly drawn) here?
Its GI50 is 0.174 µM.

And the TGI?
Its TGI is 0.495 µM.

With `Cc1ccc2c(C3C(C#N)=C(N)Oc4cc5ccccc5cc43)cc(=O)oc2c1` (stereo not drawn) as the molecule, how does the GI50 read?
The GI50 was 0.925 µM.

And the TGI?
Its TGI is 67.1 µM.

For `Cn1c(=O)c(Oc2ccc(F)cc2)cc2cnc(NC3CCOCC3)nc21`, which GI50 is on record?
The GI50 was greater than 25 µM.

And the TGI?
Its TGI is greater than 25 µM.

What does the source list for `CC1CCN(C(=O)OCc2nc3nc(Cl)nc(N4CCOCC4)c3[nH]2)CC1`?
GI50: 0.715 µM; TGI: 2.37 µM

Which GI50 does the source give for `O=C1CCC/C=C\C[C@H]2C=CC(=O)/C2=C/C[C@H](C/C=C\CC(F)(F)F)O1` here?
The GI50 was 0.521 µM.

And the TGI?
The TGI was 2.51 µM.

For `NCCc1cc(O)c(O)cc1O`, which GI50 is on record?
Its GI50 is 20.7 µM.

And the TGI?
The TGI was 97.8 µM.

For `Nc1ncc(-c2ccc3ncnc(N4CCc5cc(F)c(Cl)cc54)c3c2)cc1CO`, which GI50 is on record?
The GI50 was 0.236 µM.

And the TGI?
The TGI was 0.933 µM.

What does the source list for `CCN(Cc1ccc(F)cc1)c1ccc(CO)c(Br)c1`?
GI50: 0.0224 µM; TGI: 0.0608 µM

Which results are given for `O=[P@@]1(c2ccccc2)O[C@H](COCc2ccccc2)[C@@H](OCc2ccccc2)[C@H](OCc2ccccc2)[C@H]1NCc1ccccc1`?
GI50: 3.06 µM; TGI: 12.6 µM

Which results are given for `COc1ccc(-c2cc(/C=C/C(=O)c3ccc(OC)c(OC)c3)[nH]n2)cc1`?
GI50: 1.22 µM; TGI: 2.94 µM

`CC1(C)N=C(N)N=C(N)N1c1ccc(CCCCc2ccc(Cl)c(S(=O)(=O)F)c2)c(Cl)c1` was tested. Which GI50 did it give?
The GI50 was 2.51 µM.

And the TGI?
The TGI was 16.4 µM.

For `Cn1c(Nc2ccc(C(F)(F)F)cc2)nc2cc(Oc3ccnc(-c4ncc(C(F)(F)F)[nH]4)c3)ccc21`, which GI50 is on record?
The GI50 was 0.127 µM.

And the TGI?
Its TGI is 11.4 µM.

Which results are given for `COc1ccc(C(O)(CCC(C)C)C(CN2CCOCC2)c2ccc(Cl)cc2)cc1` (stereo not drawn)?
GI50: 7.43 µM; TGI: 23.4 µM

Which GI50 does the source give for `CN(C)C/C=C/C(=O)Nc1cc2c(Nc3ccc(F)c(Cl)c3)ncnc2cc1O[C@H]1CCOC1` here?
Its GI50 is < 0.01 µM and 0.00112 µM.

And the TGI?
The TGI was 0.01 µM and 0.0067 µM.

How did the GI50 turn out when `C#Cc1nc(Nc2cc(C)[nH]n2)c2ccccc2n1` was run?
Its GI50 is 0.184 µM.

And the TGI?
Its TGI is 0.45 µM.

`C=COC(=O)N[C@H]1CCc2cc(OC)c(OC)c(OC)c2-c2ccc(SC)c(=O)cc21` was tested. Which GI50 did it give?
The GI50 was less than 0.01 µM.

And the TGI?
Its TGI is greater than 100 µM.

Which results are given for `O=C(NNc1ccccc1)C(=O)NNc1ccccc1`?
GI50: > 100 µM; TGI: > 100 µM

Which results are given for `CN(C)CCC(=O)C(=Cc1ccc(O)cc1)C(=O)CCN(C)C`?
GI50: 26.8 µM; TGI: 75.2 µM

With `Cn1cc(-c2csc(-c3c[nH]c4ccc(Br)cc34)n2)c2cnccc21` as the molecule, how does the GI50 read?
Its GI50 is 1.68 µM.

And the TGI?
The TGI was 3.56 µM.

What does the source list for `CN(C)c1ccc(N=Nc2ccccn2)c(O)c1`?
GI50: 0.204 µM; TGI: 0.912 µM

For `COc1ccc(-c2nsc3c2NC(=O)CC3c2cccc(OC)c2)cc1` (stereo not drawn), which GI50 is on record?
Its GI50 is 0.395 µM.

And the TGI?
The TGI was 3.97 µM.

For `COc1cc(C2CC(c3cccc(Nc4ccncc4)c3)=NN2c2ccc(Cl)cc2)cc(OC)c1OC` (stereo not drawn), which GI50 is on record?
The GI50 was 1.63 µM.

And the TGI?
The TGI was 3.45 µM.

`CC(C)OC(=O)[C@H](C)NP(=O)(OC[C@H]1O[C@@H](n2ccc(=O)[nH]c2=O)[C@](C)(F)[C@@H]1O)Oc1ccccc1` (stereo partly drawn) was tested. Which GI50 did it give?
Its GI50 is greater than 100 µM.

And the TGI?
Its TGI is greater than 100 µM.

`CCOC(=O)c1c(-c2ccc(OC)cc2)c(C#N)c2c(C#N)c(N)nn2c1N` was tested. Which GI50 did it give?
The GI50 was 2.08 µM.

What about the TGI of the same molecule?
Its TGI is 6.86 µM.

Which results are given for `O=[N+]([O-])c1ccc(CI)cc1`?
GI50: 1.71 µM; TGI: 4.09 µM

With `CN(C)C(=S)Sc1ccc([N+](=O)[O-])cc1[N+](=O)[O-]` as the molecule, how does the GI50 read?
Its GI50 is 2.12 µM.

What about the TGI of the same molecule?
Its TGI is 5.78 µM.

How did the GI50 turn out when `Nc1ccn(C2OC(CO)C(O)C2O)c(=O)n1` (stereo not drawn) was run?
The GI50 was greater than 61.1 µM.

What about the TGI of the same molecule?
The TGI was greater than 100 µM.

What does the source list for `O=C1c2cccc3cccc(c23)C(=O)N1CCCCCN1CCN(CCCCCOc2ccc(-c3nc4ccc(N5CCOCC5)cc4[nH]3)cc2)CC1`?
GI50: 20.3 µM; TGI: 34.6 µM

For `O=[N+]([O-])c1cccc2ccc(N/N=C/c3ccccc3O)nc12`, which GI50 is on record?
The GI50 was 0.676 µM.

What about the TGI of the same molecule?
The TGI was greater than 100 µM.

What does the source list for `BrCc1cccc(C[P+](c2ccccc2)(c2ccccc2)c2ccccc2)c1`?
GI50: 2.25 µM; TGI: 8.36 µM

How did the GI50 turn out when `C[C@H](Nc1cc(Cl)nc2c1cnn2[C@@H]1O[C@H](COP(=O)(O)CP(=O)(O)O)[C@@H](O)[C@H]1O)c1ccccc1F` was run?
The GI50 was greater than 100 µM.

What about the TGI of the same molecule?
The TGI was greater than 100 µM.

Which results are given for `CC(C(=O)O)c1cccc(Oc2ccccc2)c1` (stereo not drawn)?
GI50: > 100 µM; TGI: > 100 µM

Which GI50 does the source give for `COc1cc(/C=C/C(=O)c2cccc(-n3cc(-c4ccc(Cl)cc4)[nH]c3=O)c2)ccc1O` here?
The GI50 was 3.12 µM.

What about the TGI of the same molecule?
Its TGI is 19.2 µM.

Which GI50 does the source give for `CCc1ccc(/C=C/c2ccc(O)c3ncccc23)[n+](C)c1` here?
Its GI50 is 0.539 µM.

And the TGI?
Its TGI is greater than 36.5 µM.

For `CC(C)=CCc1cc(O)cc2c1OC(C=C(C)C)C1=C2C(=O)C2=C(C1=O)S(=O)(=O)CCN2` (stereo not drawn), which GI50 is on record?
Its GI50 is 2.68 µM.

And the TGI?
Its TGI is 8.24 µM.

For `COc1ccccc1Nc1ncc(-c2ccccc2)o1`, which GI50 is on record?
The GI50 was 3.02 µM.

And the TGI?
Its TGI is greater than 25 µM.

Which GI50 does the source give for `CS(=O)(=O)Nc1cc(-c2ccc3ncnc(Nc4c(Cl)ccc5c4OCO5)c3c2)cnc1Cl` here?
The GI50 was 0.128 µM.

And the TGI?
Its TGI is 0.454 µM.

Which GI50 does the source give for `COc1cc(/C=C\c2cc(OC)c(OC)c(OC)c2)cc(N/C=C\C(=O)c2cc(OC)c(OC)c(OC)c2)c1OC` here?
The GI50 was 1.88 µM.

What about the TGI of the same molecule?
Its TGI is 6.34 µM.

Which results are given for `COC(=O)c1ccc2c(c1)/C(=C\c1cc(Br)c(O)c(Br)c1)C(=O)N2`?
GI50: 6.09 µM; TGI: > 22 µM
